Experimental data: ChEMBL document CHEMBL1144156 (Bioorg Med Chem Lett, 2008)
pEC50, pIC50: −log10 of the molar value.

Assays:
Progesterone receptor [1] = target: T1, Progesterone receptor (Homo sapiens, UniProt P06401); assay: Activity at progesterone receptor assessed as alkaline phosphatase activity in human T47D cells; format: cell-based
T1 sequence (P06401 whole entry): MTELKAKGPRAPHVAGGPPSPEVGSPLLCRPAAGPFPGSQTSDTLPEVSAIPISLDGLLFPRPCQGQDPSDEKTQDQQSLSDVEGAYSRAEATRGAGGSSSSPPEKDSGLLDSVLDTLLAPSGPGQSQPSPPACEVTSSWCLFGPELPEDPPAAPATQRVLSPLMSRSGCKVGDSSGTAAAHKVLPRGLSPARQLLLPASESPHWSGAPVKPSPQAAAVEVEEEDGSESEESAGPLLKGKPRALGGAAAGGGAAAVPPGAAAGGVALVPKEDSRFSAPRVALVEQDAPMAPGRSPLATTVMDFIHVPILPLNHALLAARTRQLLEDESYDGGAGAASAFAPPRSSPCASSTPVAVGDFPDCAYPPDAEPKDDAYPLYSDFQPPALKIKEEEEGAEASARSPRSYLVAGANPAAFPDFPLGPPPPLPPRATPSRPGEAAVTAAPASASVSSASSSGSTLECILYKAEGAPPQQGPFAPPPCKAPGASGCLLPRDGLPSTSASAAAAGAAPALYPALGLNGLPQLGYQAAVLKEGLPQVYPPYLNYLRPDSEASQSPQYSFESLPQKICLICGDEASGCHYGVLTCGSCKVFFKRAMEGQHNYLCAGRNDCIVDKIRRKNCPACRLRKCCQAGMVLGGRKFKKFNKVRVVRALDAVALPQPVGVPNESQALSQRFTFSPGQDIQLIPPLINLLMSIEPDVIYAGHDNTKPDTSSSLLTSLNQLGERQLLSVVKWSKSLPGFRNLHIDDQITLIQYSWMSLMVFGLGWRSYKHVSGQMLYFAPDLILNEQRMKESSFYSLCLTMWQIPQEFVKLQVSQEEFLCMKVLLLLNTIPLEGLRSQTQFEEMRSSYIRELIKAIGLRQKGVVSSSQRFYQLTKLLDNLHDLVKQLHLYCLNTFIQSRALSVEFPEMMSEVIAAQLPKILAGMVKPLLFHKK

Glucocorticoid receptor = target: T2, Glucocorticoid receptor (Homo sapiens, UniProt P04150); assay: Antagonist activity at glucocorticoid receptor by Gal4-DNA binding domain-hormone receptor LBD one-hybrid assay
T2 sequence (P04150 whole entry): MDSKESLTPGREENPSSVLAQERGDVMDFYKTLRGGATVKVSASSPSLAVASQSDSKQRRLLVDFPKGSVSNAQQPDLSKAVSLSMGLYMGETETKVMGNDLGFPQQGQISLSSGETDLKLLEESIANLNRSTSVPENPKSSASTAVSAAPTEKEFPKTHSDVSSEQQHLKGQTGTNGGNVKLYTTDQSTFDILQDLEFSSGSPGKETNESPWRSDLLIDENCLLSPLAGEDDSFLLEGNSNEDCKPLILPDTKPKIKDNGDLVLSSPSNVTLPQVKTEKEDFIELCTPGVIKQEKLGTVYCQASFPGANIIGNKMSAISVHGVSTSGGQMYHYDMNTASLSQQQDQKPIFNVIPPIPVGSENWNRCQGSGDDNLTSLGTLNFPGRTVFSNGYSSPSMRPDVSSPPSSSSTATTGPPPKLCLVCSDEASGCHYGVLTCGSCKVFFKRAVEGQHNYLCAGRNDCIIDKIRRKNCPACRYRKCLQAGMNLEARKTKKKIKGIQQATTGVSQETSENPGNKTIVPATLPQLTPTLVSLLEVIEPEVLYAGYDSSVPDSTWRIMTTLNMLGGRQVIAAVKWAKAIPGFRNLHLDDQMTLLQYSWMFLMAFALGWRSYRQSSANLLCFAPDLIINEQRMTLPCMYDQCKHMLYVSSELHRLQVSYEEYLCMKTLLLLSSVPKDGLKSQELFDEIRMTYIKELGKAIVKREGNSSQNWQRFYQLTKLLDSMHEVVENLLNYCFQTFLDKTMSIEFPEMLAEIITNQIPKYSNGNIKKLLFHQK

[2] = target: T3, Mineralocorticoid receptor (Homo sapiens, UniProt P08235); assay: Antagonist activity at mineralocorticoid receptor by Gal4-DNA binding domain-hormone receptor LBD one-hybrid assay
T3 sequence (P08235 whole entry): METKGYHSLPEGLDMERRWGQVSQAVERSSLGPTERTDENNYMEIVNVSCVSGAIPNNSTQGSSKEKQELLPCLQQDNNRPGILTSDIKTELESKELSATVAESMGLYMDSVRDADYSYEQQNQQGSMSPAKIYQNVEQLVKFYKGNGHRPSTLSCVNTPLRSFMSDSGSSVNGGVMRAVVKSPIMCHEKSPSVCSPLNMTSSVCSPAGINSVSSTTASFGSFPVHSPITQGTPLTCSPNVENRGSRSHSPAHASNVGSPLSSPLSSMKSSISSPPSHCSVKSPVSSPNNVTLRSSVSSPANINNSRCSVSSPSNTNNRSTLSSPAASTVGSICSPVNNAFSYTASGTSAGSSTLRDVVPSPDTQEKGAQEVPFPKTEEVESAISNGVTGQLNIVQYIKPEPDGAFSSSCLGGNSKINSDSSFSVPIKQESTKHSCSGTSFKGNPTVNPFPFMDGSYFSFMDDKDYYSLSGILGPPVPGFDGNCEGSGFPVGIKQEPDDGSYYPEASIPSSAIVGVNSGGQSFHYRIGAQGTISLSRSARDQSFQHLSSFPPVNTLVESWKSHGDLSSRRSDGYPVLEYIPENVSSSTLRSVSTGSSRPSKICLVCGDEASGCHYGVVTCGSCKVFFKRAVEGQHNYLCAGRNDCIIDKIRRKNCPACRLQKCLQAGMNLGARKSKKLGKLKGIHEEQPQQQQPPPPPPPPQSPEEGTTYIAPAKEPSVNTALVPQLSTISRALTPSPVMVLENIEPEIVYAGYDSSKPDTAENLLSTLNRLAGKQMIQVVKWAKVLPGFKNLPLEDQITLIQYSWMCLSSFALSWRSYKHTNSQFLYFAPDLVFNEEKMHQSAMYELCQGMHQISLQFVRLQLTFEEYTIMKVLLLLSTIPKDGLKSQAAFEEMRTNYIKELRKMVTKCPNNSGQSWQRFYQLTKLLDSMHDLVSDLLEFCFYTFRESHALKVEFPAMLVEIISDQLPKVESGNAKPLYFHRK

Estrogen receptor = target: T4, Estrogen receptor (Homo sapiens, UniProt P03372); assay: Antagonist activity at estrogen receptor by Gal4-DNA binding domain-hormone receptor LBD one-hybrid assay
T4 sequence (P03372 whole entry): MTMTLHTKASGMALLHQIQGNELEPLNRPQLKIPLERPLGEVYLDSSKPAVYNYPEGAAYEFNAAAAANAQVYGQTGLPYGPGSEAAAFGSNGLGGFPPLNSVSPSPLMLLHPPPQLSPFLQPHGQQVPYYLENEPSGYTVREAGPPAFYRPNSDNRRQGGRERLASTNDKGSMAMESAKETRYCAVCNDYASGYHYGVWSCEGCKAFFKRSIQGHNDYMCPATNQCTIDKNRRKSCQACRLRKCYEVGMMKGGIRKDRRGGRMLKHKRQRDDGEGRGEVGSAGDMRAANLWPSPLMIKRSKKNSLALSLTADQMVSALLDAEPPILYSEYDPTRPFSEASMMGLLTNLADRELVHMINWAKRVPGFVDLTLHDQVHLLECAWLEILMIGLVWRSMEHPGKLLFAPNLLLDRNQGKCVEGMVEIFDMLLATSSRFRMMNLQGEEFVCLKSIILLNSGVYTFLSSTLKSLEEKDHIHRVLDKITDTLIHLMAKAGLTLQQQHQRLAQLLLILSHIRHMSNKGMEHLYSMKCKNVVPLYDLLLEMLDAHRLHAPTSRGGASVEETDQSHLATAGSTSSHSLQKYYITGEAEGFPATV

Androgen receptor = target: T5, Androgen receptor (Homo sapiens, UniProt P10275); assay: Antagonist activity at androgen receptor by Gal4-DNA binding domain-hormone receptor LBD one-hybrid assay
T5 sequence (P10275 whole entry): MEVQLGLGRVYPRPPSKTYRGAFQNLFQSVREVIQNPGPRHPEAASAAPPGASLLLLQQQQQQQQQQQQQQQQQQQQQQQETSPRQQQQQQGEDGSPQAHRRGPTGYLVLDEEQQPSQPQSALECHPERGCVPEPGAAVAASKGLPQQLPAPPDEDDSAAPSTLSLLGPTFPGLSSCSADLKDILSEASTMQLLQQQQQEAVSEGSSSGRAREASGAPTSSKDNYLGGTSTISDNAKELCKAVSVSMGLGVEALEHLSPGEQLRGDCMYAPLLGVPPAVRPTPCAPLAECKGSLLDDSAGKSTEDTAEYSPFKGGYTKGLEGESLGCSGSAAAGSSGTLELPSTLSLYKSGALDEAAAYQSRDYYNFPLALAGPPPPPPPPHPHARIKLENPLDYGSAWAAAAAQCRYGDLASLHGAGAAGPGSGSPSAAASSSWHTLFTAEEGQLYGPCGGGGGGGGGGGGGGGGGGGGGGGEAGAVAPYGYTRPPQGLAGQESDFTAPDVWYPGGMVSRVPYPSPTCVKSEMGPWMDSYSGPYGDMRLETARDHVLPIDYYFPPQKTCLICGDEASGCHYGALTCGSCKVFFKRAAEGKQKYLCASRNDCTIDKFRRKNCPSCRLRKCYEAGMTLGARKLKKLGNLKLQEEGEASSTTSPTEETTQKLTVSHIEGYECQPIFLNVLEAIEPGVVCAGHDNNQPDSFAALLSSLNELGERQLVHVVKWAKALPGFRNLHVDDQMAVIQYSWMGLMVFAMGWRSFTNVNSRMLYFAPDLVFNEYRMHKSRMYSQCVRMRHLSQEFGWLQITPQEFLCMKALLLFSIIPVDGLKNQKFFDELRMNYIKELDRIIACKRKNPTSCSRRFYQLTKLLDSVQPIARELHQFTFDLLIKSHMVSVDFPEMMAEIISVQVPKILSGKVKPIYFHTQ

Progesterone receptor [3] = target: T1, Progesterone receptor; assay: Displacement of [3H]progesterone from progesterone receptor in human T47D cells; format: cell-based
Progesterone receptor [4] = target: T1, Progesterone receptor; assay: Antagonist activity at progesterone receptor assessed as progesterone-induced alkaline phosphatase activity in human T47D cells; format: functional, cell-based

Structure (SMILES) | pEC50 (Progesterone receptor [1]) | pIC50 (Progesterone receptor [3]) | pIC50 (Progesterone receptor [4]) | further results
N#Cc1ccc(-c2ccc3c(c2)C2(CCCCC2)OCC(=O)N3)[nH]1 | 7.52 | – | – | –
CC1(c2ccsc2)OCC(=O)Nc2ccc(-c3ccc(C#N)[nH]3)cc21 (stereo not given) | 8.96 | – | – | –
Cn1c(C#N)ccc1-c1ccc2c(c1)C(c1cccs1)(c1cccs1)OCC(=O)N2 | – | 7.22 | – | pIC50 (Glucocorticoid receptor): < 5.52; pIC50 [2]: 5.64; pIC50 (Estrogen receptor): < 5.00; pIC50 (Androgen receptor): 6.11
CC1(c2cccs2)OCC(=O)Nc2ccc(-c3ccc(C#N)[nH]3)cc21 (stereo not given) | 9.15 | 8.42 | – | –
C[C@@]1(c2ccsc2)OCC(=O)Nc2ccc(-c3ccc(C#N)[nH]3)cc21 | 9.30 | – | – | –
Cn1c(C#N)ccc1-c1ccc2c(c1)C(c1ccc(Cl)s1)(c1ccc(Cl)s1)OCC(=O)N2 | – | – | 6.70 | –
Cn1c(C#N)ccc1-c1ccc2c(c1)C(C)(c1ccco1)OCC(=O)N2 (stereo not given) | 9.40 | – | – | pIC50 (Glucocorticoid receptor): 6.92; pIC50 [2]: 6.81; pIC50 (Estrogen receptor): < 5.00; pIC50 (Androgen receptor): 6.67
Cn1c(C#N)ccc1-c1ccc2c(c1)C(C)(c1ccsc1)OCC(=O)N2 (stereo not given) | 9.10 | 8.47 | – | pIC50 (Glucocorticoid receptor): 6.90; pIC50 [2]: 6.36; pIC50 (Estrogen receptor): < 5.00; pIC50 (Androgen receptor): 6.49
C[C@]1(c2ccsc2)OCC(=O)Nc2ccc(-c3ccc(C#N)[nH]3)cc21 | 6.96 | – | – | –
Cn1c(C#N)ccc1-c1ccc2c(c1)C(c1ccco1)(c1ccco1)OCC(=O)N2 | – | 7.55 | 8.18 | pIC50 (Glucocorticoid receptor): < 5.52; pIC50 [2]: 5.55; pIC50 (Estrogen receptor): < 5.00; pIC50 (Androgen receptor): 6.13
CCC1(c2cccs2)OCC(=O)N(C)c2ccc(-c3ccc(C#N)n3C)cc21 (stereo not given) | – | – | 6.92 | –
CC1(C)OCC(=O)Nc2ccc(-c3ccc(C#N)[nH]3)cc21 | 8.48 | 7.97 | – | –
Cn1c(C#N)ccc1-c1ccc2c(c1)C(C)(C)OCC(=O)N2 | 8.48 | – | – | –
Cn1c(C#N)ccc1-c1ccc2c(c1)C(c1cccc(Cl)c1)(c1cccc(Cl)c1)OCC(=O)N2 | – | – | 6.76 | –
CN1C(=O)COC(c2ccccc2)(c2ccccc2)c2cc(-c3ccc(C#N)n3C)ccc21 | – | – | 6.30 | –
Cn1c(C#N)ccc1-c1ccc2c(c1)C(C)(c1cccs1)OCC(=O)N2 (stereo not given) | 9.10 | 8.62 | – | –
CN1C(=O)COC(C)(c2cccs2)c2cc(-c3ccc(C#N)n3C)ccc21 (stereo not given) | 7.43 | – | – | –
CCC1(c2cccs2)OCC(=O)Nc2ccc(-c3ccc(C#N)n3C)cc21 (stereo not given) | – | 7.12 | – | –
Cn1c(C#N)ccc1-c1ccc2c(c1)C(c1ccccc1)(c1ccccc1)OCC(=O)N2 | – | 7.44 | 7.84 | –
CC1OCC(=O)Nc2ccc(-c3ccc(C#N)[nH]3)cc21 (stereo not given) | 6.61 | – | – | –
CC1OCC(=O)Nc2ccc(-c3ccc(C#N)n3C)cc21 (stereo not given) | 6.86 | – | – | –
CC(C)C1(c2cccs2)OCC(=O)Nc2ccc(-c3ccc(C#N)n3C)cc21 (stereo not given) | – | – | 7.44 | –
CCCC1(c2cccs2)OCC(=O)Nc2ccc(-c3ccc(C#N)n3C)cc21 (stereo not given) | – | – | 7.25 | –
